Measured values published in article PMC7024302, “Ultrashort Cationic Lipopeptides–Effect of N-Terminal Amino Acid and Fatty Acid Type on Antimicrobial Activity and Hemolysis” (Molecules, 2020).
≈ marks a conversion by molar mass, not a printed value. Residues, ends and D or L forms follow the SMILES beside them.

What was measured:
[1] = Determination of peptide hydrophobicity with RP-HPLC (adjusted retention time); assay type: physicochemical; settings: RP-HPLC C18, linear 10–55% acetonitrile over 60 min, 0.1% TFA, 25.0 °C, UV 214 nm, triplicate; for tR’: Table 3, adjusted retention time as hydrophobicity; for Adjusted retention time: Table 2, nC = carbon atoms in fatty acid chain
Experimental: To determine peptide hydrophobicity, the Waters Alliance e2695 system with a Waters 2998 PDA Detector (software-Empower®3) was used. All analyses were carried out on a Phenomenex Luna C18(2) column (3.0 × 100 mm, 5 µm particle size, 100 Å pore size). The peptides were dissolved in water (0.1% TFA, v/v) to obtain a concentration of 1 g/L. UV detection at 214 nm was used, and aliquots (10 µL) were eluted with a linear 10–55% acetonitrile gradient in deionized water over 60 min at 25.0 ± 0.1 °C. The mobile phase flow rate was 0.5 mL/min. Both eluents contained 0.1% (v/v) of TFA. Each peptide sample was analyzed in triplicate.

S. aureus ATCC 25923 = assay type: cell-based, Staphylococcus aureus; settings: ATCC 25923, 18 h
From the text: (§1) The Acinetobacter baumannii ATCC BAA-1605, Candida albicans ATCC 10231, Enterococcus faecium ATCC 700221, Klebsiella aerogenes ATCC 13048 (previously known as Enterobacter aerogenes), Klebsiella pneumoniae ATCC 700603, Pseudomonas aeruginosa ATCC 9027, Staphylococcus aureus ATCC 25923 and MRSA ATCC 33591, were acquired from the American Type Culture Collection (ATCC). Before running the tests, beads with cryo-protected microorganisms were transferred into fresh MHB (BioMaxima, Lublin, Poland) for bacteria or RPMI-1640 for fungi and incubated for 24 h at 37 °C. Then, the culture was seeded on the Mueller-Hinton agar (MHA) plates (BioMaxima, Lublin, Poland) for bacteria or Sabouraud dextrose agar (SDA) plates (BioMaxima, Lublin, Poland) for fungi and incubated as just mentioned. Cell densities for all assays were adjusted spectrophotometrically (Multiskan™ GO Microplate Spectrophotometer, Thermo Fisher Scientific, Vantaa, Finland) at 600 nm for bacteria and at 530 nm for fungi.
(§2) The MICs were determined by broth microdilution method according to the Clinical and Laboratory Standard Institute guidelines. For this purpose initial inoculums of bacteria (5 × 10^5 CFU/mL) in MHB (BioMaxima, Lublin, Poland) and fungi (2 × 10^3 CFU/mL) in RPMI-1640 with 2% D-glucose (Merck, Darmstadt, Germany) prepared with MOPS (pH 7.0 ± 0.1 at 25 °C; Merck, Darmstadt, Germany) were exposed to the ranging concentration of lipopeptides (0.5–256 µg/mL) and incubated at 37 °C for 18 h and 24 h respectively. The experiments were conducted on 96-well microtiter polystyrene plates (Kartell, Italy). The MIC was taken as the lowest peptide concentration at which a noticeable growth of microorganisms was inhibited. All experiments were conducted in triplicate.

[2] = tested on: S. aureus ATCC 33591 (MRSA); assay type: cell-based, Staphylococcus aureus; settings: ATCC 33591, 18 h
From the text: as §1, §2

P. aeruginosa ATCC 9027 = assay type: cell-based, Pseudomonas aeruginosa; settings: ATCC 9027, 18 h
From the text: as §1, §2

C. albicans ATCC 10231 = assay type: cell-based, Candida albicans; settings: ATCC 10231, 24 h, pH 7
From the text: as §1, §2

[3] = tested on: human red blood cells (hRBCs); assay type: cell-based; settings: red cells of human, 1 h
Experimental: The hemolysis assay was performed as described earlier according to the method of Avrahami and Shai. Fresh human red blood cells (hRBCs) with anticoagulant (EDTA) were rinsed three times with a PBS (Merck, Darmstadt, Germany) by centrifugation at 800× g for 10 min and resuspended in PBS. Lipopeptides were serially diluted on 96-well microtiter polystyrene plate and hRBCs were added to reach final volume of 100 µL. Peptide concentration ranged between 0.5 and 256 µg/mL and final hRBCs concentration was 4% (v/v). Controls for zero hemolysis (blank) and 100% hemolysis consisted of hRBCs suspended in PBS and 1% of Triton-X 100 (Merck, Darmstadt, Germany), respectively. The plate was incubated for 1 h at 37 °C and then centrifuged (800× g, 10 min, 4 °C). Subsequently, supernatant was […] to new microtiter plates and absorbance at 540 nm were measured. All experiments were conducted in triplicate. Protocol of the study received approval from the local Bioethics Committee at the Medical University of Gdańsk (NKBBN/262/2019).

E. faecium ATCC 700221 = assay type: cell-based, Enterococcus faecium; settings: ATCC 700221, 18 h
From the text: as §1, §2

[4] = tested on: K. pneumoniae ATCC 700603; assay type: cell-based, Klebsiella pneumoniae; settings: ATCC 700603, 18 h
From the text: as §1, §2

[5] = tested on: A. baumannii ATCC BAA-1605; assay type: cell-based, Acinetobacter baumannii; settings: ATCC BAA-1605, 18 h
From the text: as §1, §2

K. aerogenes ATCC 13048 = assay type: cell-based, Klebsiella aerogenes; settings: ATCC 13048, 18 h
From the text: as §1, §2

Row | SMILES | tR’ [1] [min] | MIC SA (S. aureus ATCC 25923) [µg/mL] | MIC S [2] [µg/mL] | MIC PA (P. aeruginosa ATCC 9027) [µg/mL] | MIC CA (C. albicans ATCC 10231) [µg/mL] | HC50 [3] | MIC E1 (E. faecium ATCC 700221) [µg/mL] | MIC K [4] [µg/mL] | MIC A [5] [µg/mL] | MIC E2 (K. aerogenes ATCC 13048) [µg/mL] | Adjusted retention time [1] [min]
1 | CCCCCCCCCCCCCC(=O)N[C@@H](Cc1ccccc1)C(=O)N[C@@H](CCCNC(=N)N)C(=O)N[C@@H](CCCNC(=N)N)C(N)=O [compound 26, C14-FRR-NH2] (HELM PEPTIDE1{[CCCCCCCCCCCCCC(=O)[*:2]].F.R.R.[am]}$$$$V2.0) | 47.75 | 4 (≈ 5.82 µM) | 32 (≈ 46.6 µM) | 8 (≈ 11.6 µM) | 2 (≈ 2.91 µM) | 39.09 (±1.18) µg/mL | 16 (≈ 23.3 µM) | 64 (≈ 93.2 µM) | 128 (≈ 186 µM) | 64 (≈ 93.2 µM) | 
2 | CCCCCCCCCCCCCC(=O)NCC(=O)N[C@@H](CCCNC(=N)N)C(=O)N[C@@H](CCCNC(=N)N)C(N)=O [compound 30, C14-GRR-NH2] | 40.53 | 8 (≈ 13.4 µM) | 8 (≈ 13.4 µM) | 32 (≈ 53.6 µM) | 16 (≈ 26.8 µM) | 31.94 (±1.99) µg/mL | 8 (≈ 13.4 µM) | 256 (≈ 429 µM) | 64 (≈ 107 µM) | 256 (≈ 429 µM) | 
3 | CCCCCCCCCCCCCC(=O)N[C@@H](Cc1c[nH]cn1)C(=O)N[C@@H](CCCNC(=N)N)C(=O)N[C@@H](CCCNC(=N)N)C(N)=O [compound 34, C14-HRR-NH2] (HELM PEPTIDE1{[CCCCCCCCCCCCCC(=O)[*:2]].H.R.R.[am]}$$$$V2.0) | 35.80 | 16 (≈ 23.6 µM) | 16 (≈ 23.6 µM) | 64 (≈ 94.5 µM) | 16 (≈ 23.6 µM) | 50.31 (±0.52) µg/mL | 8 (≈ 11.8 µM) | 256 (≈ 378 µM) | 128 (≈ 189 µM) | 256 (≈ 378 µM) | 
4 | CCCCCCCCCCCC(=O)N[C@H](C(=O)N[C@@H](CCCNC(=N)N)C(=O)N[C@@H](CCCNC(=N)N)C(N)=O)[C@@H](C)CC [compound 37, C12-IRR-NH2] (HELM PEPTIDE1{[CCCCCCCCCCCC(=O)[*:2]].I.R.R.[am]}$$$$V2.0) | 39.05 | 8 (≈ 12.8 µM) | 8 (≈ 12.8 µM) | 16 (≈ 25.6 µM) | 16 (≈ 25.6 µM) | 120.40 (±1.55) µg/mL | 8 (≈ 12.8 µM) | 256 (≈ 410 µM) | 64 (≈ 102 µM) | 256 (≈ 410 µM) | 39.047
5 | CCCCCCCCCCCCCC(=O)N[C@H](C(=O)N[C@@H](CCCNC(=N)N)C(=O)N[C@@H](CCCNC(=N)N)C(N)=O)[C@@H](C)CC [compound 38, C14-IRR-NH2] (HELM PEPTIDE1{[CCCCCCCCCCCCCC(=O)[*:2]].I.R.R.[am]}$$$$V2.0) | 45.65 | 4 (≈ 6.13 µM) | 4 (≈ 6.13 µM) | 4 (≈ 6.13 µM) | 4 (≈ 6.13 µM) | 78.92 (±4.38) µg/mL | 4 (≈ 6.13 µM) | 64 (≈ 98 µM) | 64 (≈ 98 µM) | 64 (≈ 98 µM) | 45.650
6 | CCCCCCCCCCCCCC(=O)N[C@@H](CCCCN)C(=O)N[C@@H](CCCNC(=N)N)C(=O)N[C@@H](CCCNC(=N)N)C(N)=O [compound 42, C14-KRR-NH2] (HELM PEPTIDE1{[CCCCCCCCCCCCCC(=O)[*:2]].K.R.R.[am]}$$$$V2.0) | 35.66 | 8 (≈ 12 µM) | 8 (≈ 12 µM) | 64 (≈ 95.8 µM) | 32 (≈ 47.9 µM) | 212.08 (±6.12) µg/mL | 8 (≈ 12 µM) | 128 (≈ 192 µM) | 64 (≈ 95.8 µM) | 64 (≈ 95.8 µM) | 
7 | CCCCCCCCCCCC(=O)N[C@@H](CC(C)C)C(=O)N[C@@H](CCCNC(=N)N)C(=O)N[C@@H](CCCNC(=N)N)C(N)=O [compound 45, C12-LRR-NH2] (HELM PEPTIDE1{[CCCCCCCCCCCC(=O)[*:2]].L.R.R.[am]}$$$$V2.0) | 39.82 | 8 (≈ 12.8 µM) | 16 (≈ 25.6 µM) | 16 (≈ 25.6 µM) | 16 (≈ 25.6 µM) | 112.81 (±1.39) µg/mL | 16 (≈ 25.6 µM) | 256 (≈ 410 µM) | 64 (≈ 102 µM) | 256 (≈ 410 µM) | 39.821
8 | CCCCCCCCCCCCCC(=O)N[C@@H](CC(C)C)C(=O)N[C@@H](CCCNC(=N)N)C(=O)N[C@@H](CCCNC(=N)N)C(N)=O [compound 46, C14-LRR-NH2] (HELM PEPTIDE1{[CCCCCCCCCCCCCC(=O)[*:2]].L.R.R.[am]}$$$$V2.0) | 46.44 | 4 (≈ 6.13 µM) | 16 (≈ 24.5 µM) | 4 (≈ 6.13 µM) | 4 (≈ 6.13 µM) | 29.50 (±1.05) µg/mL | 8 (≈ 12.3 µM) | 128 (≈ 196 µM) | 64 (≈ 98 µM) | 128 (≈ 196 µM) | 46.441
9 | CCCCCCCCCCCC(=O)N[C@@H](CCSC)C(=O)N[C@@H](CCCNC(=N)N)C(=O)N[C@@H](CCCNC(=N)N)C(N)=O [compound 49, C12-MRR-NH2] (HELM PEPTIDE1{[CCCCCCCCCCCC(=O)[*:2]].M.R.R.[am]}$$$$V2.0) | 37.95 | 8 (≈ 12.4 µM) | 16 (≈ 24.9 µM) | 32 (≈ 49.8 µM) | 32 (≈ 49.8 µM) | 206.50 (±9.14) µg/mL | 16 (≈ 24.9 µM) | 256 (≈ 398 µM) | 64 (≈ 99.5 µM) | 256 (≈ 398 µM) | 
